According to patent publication US9138437B2, “Pyrimidine substituted purine compounds as kinase (S) inhibitors” (VERASTEM, INC., priority 2009, dated 2015):
Converted amounts (≈) assume the structure as drawn. Like-named read-outs stand apart in the source and are kept apart here.

Legend:
[1] = High throughput solubility assay (kinetic, UV); conditions: pH 7
Experimental: (§1) Compound solubility is determined in a high-throughput kinetic solubility profiling method using a 96-well format. Compound solubility is assessed using a UV/Visible Microplate Spectrophotometer (Molecular Devices SpectraMax Plus384). Vorinostat (SAHA) and Nicardipine, purchased from Sigma, are used as reference standards.
(§2) The mixture is then shaken at 600 rpm for 1.5 h and allowed to stand at room temperature for 2 h. […] The resulting supernatant (80 μL) is transferred to the UV-analysis plate and diluted with DMSO (20 μL). The samples are quantified using calibration stocks of the respective compound made in phosphate buffer/DMSO (80:20).

physchem = conditions: pH 7, aqueous buffer, kinetic from dmso stock
Experimental: as §1, §2

in vitro = conditions: human, pH 7.4; for half-life: microsomes
Experimental: Verapamil, purchased from Sigma-Aldrich, is used as a reference standard in the assay. HLM are purchased from Xeno Tech (20 mg/mL in 250 mM sucrose solution). A 100 mM stock solution of potassium phosphate buffer is pre-prepared by combining 80 mL of 1M K2HPO4 and 20 mL of 1 M KH2PO4 in 900 mL of water (pH adjusted to 7.4 using diluted HCl) and stored at room temperature. K2HPO4.3H20 and KH2PO4 are obtained from Sigma Aldrich and the NADPH Regeneration System Solutions A and B from Gentest. The stop solution used to quench the reaction is a pre-prepared mixture of acetonitrile and DMSO (80:20) and is stored at 4° C. All solvents used are HPLC grade and the water used during the stock solution preparation and during LC-MS analysis is deionised using a Milli-Q system.
8 μL of the compound mix is then added to 72 μL of a pre-prepared incubation mix made up of water (2250 μL), 100 mM potassium phosphate buffer (2900 μL), NADPH Regeneration System Solution B (58 μL), NADPH Regeneration System Solution A (290 μL) and HLM (250 μL). The resulting reaction mixture (final compound concentration of 5 μM) is then incubated at 37° C. in a B. Braun Certomat H incubator after which a 50 μL aliquot is dispensed to a well on a separate plate well containing 100 μL of Stop solution. […] Each test compound is sampled multiple times and incubated for a series of time points (5, 15, 30, 45 and 60 min). Remaining compound concentration is determined by LC-MS (ABI Qtrap 3200) and comparison to a reference solution of known concentration. Stability is then expressed as a half-life in minutes (t½).

Row | Compound | solubility, assessment in words [1] | solubility (physchem) [µM] | half-life at 5 μM (in vitro; liver microsomes) [min] | solubility, assessment in words (pH 7) | solubility, assessment in words (as drug candidate) | half-life (in vitro) [min]
1 | CC(C)n1c(Br)nc2c(-c3cnc(N)nc3)nc(N3CCOCC3)nc21 [Cmpd B] | low solubility | 18 (≈ 7.55 µg/mL) | > 60 | – | – | –
2 | Cc1nc2c(-c3cnc(N)nc3)nc(N3CCOCC3)nc2n1C(C)C [Cmpd of the invention, 5-(9-isopropyl-8-methyl-2-morpholin-4-yl-9H-purin-6-yl)-pyrimidin-2-ylamine] | – | – | – | acceptable | – | –
3 | CCc1nc2c(-c3cnc(N)nc3)nc(N3CCOCC3)nc2n1C(C)C [Cmpd C] | – | > 250 | – | – | acceptable | 36
4 | CCC(C)n1c(Br)nc2c(-c3cnc(N)nc3)nc(N3CCOCC3)nc21 (stereo not shown) [Cmpd A] | – | 44 (≈ 19.1 µg/mL) | – | – | low solubility | > 60
5 | CCC(C)n1cnc2c(-c3cnc(N)nc3)nc(N3CCOCC3)nc21 (stereo not shown) [Cmpd E] | – | 35 (≈ 12.4 µg/mL) | – | – | low solubility | > 60
6 | CCC(C)n1c(C)nc2c(-c3cnc(N)nc3)nc(N3CCOCC3)nc21 (stereo not shown) [Cmpd D] | – | > 250 | – | – | acceptable | 26
